Assay results reported in paper PMC3798130 (Angewandte Chemie (International Ed. in English), 2013).

Key:
JMJD2E (KDM4E) [1] = molecular target: T1, JMJD2E (KDM4E) (Homo sapiens, UniProt B2RXH2); assay: MALDI-TOF MS activity assay; type: biochemical; conditions: 1 hour, 25 °C, pH 7.5, mass gain
T1 sequence (B2RXH2 1-506): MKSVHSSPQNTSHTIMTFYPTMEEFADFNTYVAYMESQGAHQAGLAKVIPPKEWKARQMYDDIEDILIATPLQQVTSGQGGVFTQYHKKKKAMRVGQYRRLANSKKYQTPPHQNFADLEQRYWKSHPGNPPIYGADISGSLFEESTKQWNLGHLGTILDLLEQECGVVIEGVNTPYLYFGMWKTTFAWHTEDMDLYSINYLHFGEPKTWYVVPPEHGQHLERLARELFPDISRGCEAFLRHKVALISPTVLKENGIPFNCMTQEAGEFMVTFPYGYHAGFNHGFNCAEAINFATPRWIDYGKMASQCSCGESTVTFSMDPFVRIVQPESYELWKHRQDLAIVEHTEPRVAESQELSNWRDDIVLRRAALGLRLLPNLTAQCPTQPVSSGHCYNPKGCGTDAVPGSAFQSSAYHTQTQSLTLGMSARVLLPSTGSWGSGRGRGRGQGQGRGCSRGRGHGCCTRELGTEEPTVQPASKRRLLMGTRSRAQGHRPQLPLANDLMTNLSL

JMJD2E (KDM4E) [2] = molecular target: T1, JMJD2E (KDM4E); assay: Kinetic parameters for reactions of lysine analogue peptides with JMJD2E; type: biochemical; conditions: MALDI-TOF initial rates

| mass of product greater than substrate peptide (hydroxylation) (JMJD2E (KDM4E) [1]) | Substance | KM, Vmax and kcat compared with other peptides (JMJD2E (KDM4E) [2]) |
| --- | --- | --- |
| 16 Da | ART-Lys(Me3)-QTAR-Lys(Me/iPr)-STGGKA [H3 Lysine-9(Me/iPr)] |  |
| 16 Da | ART-Lys(Me3)-QTAR-Lys(iPr)-STGGKA [H3 Lysine-9(iPr)] | higher than values for the other three peptides |
